These results are taken from US11844847B2, “Sulfur-containing polymerizable monomer and use thereof” (SUN MEDICAL CO., LTD., priority 2018, dated 2023).

A short description of the series: Solubility evaluation: solution stirred 0.5 hours, visually inspected for insolubles. In kind it is physicochemical. As for the experimental part: Solutions were obtained by adding the sulfur-containing compound of the amount described in Table 1 or Table 1a to the amount described in Table 1 or Table 1a of the organic solvent or the radically polymerizable monomer.
The solutions obtained were stirred with a magnetic stirrer for 0.5 hours and were then visually inspected for the presence of insolubles. The solutions were evaluated as ◯ when the solution was transparent and free from insolubles, as Δ when the solution was turbid but free from insolubles, and as x when insolubles were present. The solubility evaluations in Tables 3 to 6 are also based on the same criteria.

Setting [1] is: 2.6 parts sulfur-containing compound in 97.4 parts IPA.
The mark [2] stands for this setting: 2.6 parts sulfur-containing compound in 97.4 parts MMA.
Where [3] appears, read: 2.6 parts sulfur-containing compound in 97.4 parts acetone.
Setting [4] is: 0.65 parts sulfur-containing compound in 99.35 parts IPA.
Setting [5] is: 20 parts sulfur-containing compound in 80 parts acetone.
[6] abbreviates: added to acetone at a concentration of 20 mass %.

Regarding `C=C(C)C(=O)OCCOC(=O)CCC1NC(=S)NC1=O` (stereo not drawn) [2-THPEM, 2-((3-(5-oxo-2-thioxoimidazolidin-4-yl)propanoyl)oxy)ethyl methacrylate], the Solubility result was “∘” under setting [1], “∘” under setting [2] and “∘” under setting [3].

In the case of `C=C(C)C(=O)OCCCCOC(=O)CCC1NC(=S)NC1=O` (stereo not drawn) [4-THPBM, 4-((3-(5-oxo-2-thioxoimidazolidin-4-yl)propanoyl)oxy)butyl methacrylate], the Solubility entry is, setting by setting: under setting [1], “∘”; under setting [2], “∘”; under setting [3], “∘”.

On to `C=C(C)C(=O)OCCCCCCOC(=O)CCC1NC(=S)NC1=O` (stereo not drawn) [6-THPHM, 6-((3-(5-oxo-2-thioxoimidazolidin-4-yl)propanoyl)oxy)hexyl methacrylate], for which the Solubility result under setting [1] is “∘”, the Solubility entry under setting [2] is on record as “∘” and the Solubility result under setting [3] is listed as “∘”.

For `C=C(C)C(=O)OCCCCCCCCCCOC(=O)CCC1NC(=S)NC1=O` (stereo not drawn) [10-THPDM, 10-((3-(5-oxo-2-thioxoimidazolidin-4-yl)propanoyl)oxy)decyl methacrylate], the Solubility entry runs as follows: under setting [4], “∘”; (0.65 parts sulfur-containing compound in 99.35 parts MMA) “∘”; (0.65 parts sulfur-containing compound in 99.35 parts acetone) “∘”; under setting [1], “∘”; under setting [2], “∘”; under setting [3], “∘”. Besides, the Solubility result under setting [5] is on record as “∘”. Moreover, the “solubility (in words)” value under setting [6] is “dissolved completely”.

As for `C=Cc1ccc(CN(CCC)c2nc(=S)[nH]c(=S)[nH]2)cc1` [VBATDT, 6-(4-Vinylbenzyl-n-propyl)amino-1,3,5-triazine-2,4-dithione, reference compound], the Solubility entry by setting is: (0.5 parts sulfur-containing compound in 99.5 parts acetone) “∘”; under setting [3], “∘”. Besides, the “solubility (in words)” value is recorded as “generated insolubles” under setting [6]; “low solubility” (with respect to IPA and MMA).

Take `C=C(C)C(=O)OCCCCCCC1NC(=S)NC1=O` (stereo not drawn) [a20, 6-(5-oxo-2-thioxoimidazolidin-4-yl)hexyl methacrylate]: the Solubility entry under setting [1] was “∘”, the Solubility result under setting [2] is recorded as “∘” and the Solubility entry under setting [5] was “∘”.

With `C=C(C)C(=O)OCCCCCC=C1NC(=S)NC1=O` [a21, 6-(5-oxo-2-thioxoimidazolidin-4-ylidene)hexyl methacrylate], the Solubility result reads like this: under setting [4], “∘”; under setting [2], “∘”; (10 parts sulfur-containing compound in 90 parts acetone) “∘”.

For `C=C(C)C(=O)OCCCCCCCC=C1NC(=S)NC1=O` [a23, 8-(5-oxo-2-thioxoimidazolidin-4-ylidene)octyl methacrylate], the Solubility entry reads like this: under setting [1], “∘”; under setting [2], “∘”; under setting [5], “∘”.

Turning to `C=C(C)C(=O)OCCCCCCCCCCC1NC(=S)NC1=O` (stereo not drawn) [a24, 10-(5-oxo-2-thioxoimidazolidin-4-yl)decyl methacrylate], the Solubility result reads like this: under setting [1], “∘”; under setting [2], “∘”; under setting [5], “∘”.

As to `C=C(C)C(=O)OCCCCCCCCCC=C1NC(=S)NC1=O` [a25, 10-(5-oxo-2-thioxoimidazolidin-4-ylidene)decyl methacrylate], the Solubility result is recorded as “∘” under setting [1], “∘” under setting [2] and “∘” under setting [5].
